The source of these data is US9539272B2, “HDAC 6 inhibitor-based methods for treating cancer” (SLOAN-KETTERING INSTITUTE FOR CANCER RESEARCH, priority 2009, dated 2017).

As usually defined, the IC50 is the concentration at which inhibition is half-maximal.

For assay [1], the system named is LNCaP HDAC 6 knockdown cells. The experiment in a line: Cell viability, LNCaP HDAC 6 knockdown cells. Type of assay: cell-based, human. To be noted: LNCaP HDAC 6 knockdown, 72 hrs. From the text:
shRNA lentiviral particles targeting different regions of HDAC6 mRNA, HDAC6 KD1 (HDAC6 knockdown 1) at 1.7×10^7 TU/ml and HDAC6 KD2 (HDAC6 knockdown 2) at 1.9×10^7 TU/ml, and a non-targeting ‘scramble’ shRNA control particles (#SHC002V) at 1.1×10^7 TU/ml, were purchased from Sigma-Aldrich and transfected according to the manufacturer's instructions using polybrene (Millipore). The 21-nucleotide sequence corresponding to HDAC6 mRNA for HDAC6 KD1 is 5′-[…]-3′ and for HDAC6 KD2 is 5′-[…]-3′. For each shRNA, 5×10^5 cells were infected at an MOT of 2.

The next assay relates to MCF-7 cells. The experiment in a line: Cell growth and viability by trypan blue exclusion, MCF-7. Type of assay: cell-based, human. To be noted: MCF-7, 72 hrs; 8 μM tubacin, 5 μM SAHA, […] doxorubicin, 100 μM etoposide, alone or plus 8 μM tubacin.
The test system of a further assay is HFS cells. The experiment in a line: Cell viability, normal human foreskin cells (HFS). Type of assay: cell-based. To be noted: 8 μM tubacin, 5 μM SAHA, alone or together.
For assay [2], the system named is LNCaP cells. In words: Microarray analysis of gene expression in LNCaP cells. Type of assay: cell-based, human. The arrangement: Total gene number: dose or concentration left out as unconfirmed. On the procedure: Alterations in gene expression were evaluated by microarray using the Illumina human cDNA array containing cDNA probes representing the whole genome (10000 genes). […] Triplicate samples were prepared for each drug treatment at each time point. Poly(A)+ mRNA was isolated from cells using Trizol reagent according to manufacturer's protocol (Invitrogen). The data was analyzed using the Bioconductor packages (www.bioconductor.com) for the R statistical system. The output from Beadstudio was processed using the LUMI package. The normalization method used was quantile and the signal levels were log (base 2) transformed. To determine genes that are differentially expressed between the various sample types, the LIMMA package was used.

The test system of the next assay is γH2AX. The experiment in a line: Accumulation of γH2AX in LNCaP cells (Western blot, ImageJ quantitation). Type of assay: cell-based, human. To be noted: 24 h. (In general: Immunoblotting shows a protein as a band on a membrane.)
The subject of assay [3] is LNCaP cells. The experiment in a line: Quantitative real-time PCR in LNCaP cells. Type of assay: cell-based, human. The note with it: quantitative real-time PCR. The procedure: […] of total RNA was reverse-transcribed using the Thermoscript RT-PCR system (Invitrogen) at 52° C. for 1 h. 20 ng of resultant cDNA was used in a Q-PCR reaction using an 7500 Real-Time PCR System (Applied Biosystems) using predesigned primers for DDIT3, DDIT4, Mcm4, Mcm6, Cdt1, Psf2 and GAPDH (Applied Biosystems). Amplification was carried for 40 cycles (95° C. for 15 sec, 60° C. for 1 min). To calculate the efficiency of the PCR reaction, and to assess the sensitivity of each assay, we performed a 6 point standard curve (5, 1.7, 0.56, 0.19, 0.062, and 0.021 ng). Triplicate CT values were averaged, amounts of target were interpolated from the standard curves and normalized to GAPDH (assay Hs99999909_m1).

The subject of the next assay is WI38 cells. In words: Cell viability, normal human embryonic fibroblast WI38. Type of assay: cell-based. To be noted: 8 μM tubacin, 5 μM SAHA, alone or together.
The test system of assay [4] is LNCaP cells. The experiment in a line: Cell growth and viability by trypan blue exclusion, LNCaP.
Protocol: (§1) 5×10^4 cells were seeded per well in a 24-well plate and cultured overnight prior to treating with the compound and/or other agents as indicated for each study. Cells were harvested at 24, 48 and 72 hrs after treatment by trypsin digestion. […] At least three independent analyses were performed for each time point.
(§2) To monitor cell growth and viability, cells were seeded in triplicate at 5×10^4 cells in 1 ml of medium in 24-well plates. The drugs were added at the indicated concentrations 24 h after seeding. Cells were harvested by trypsin digestion at 24 h, 48 h and 72 h following drug additions. Cell number and viability were determined by trypan blue exclusion.
The subject of another assay is phospho-Chk2. The experiment in a line: Accumulation of phospho-Chk2 in LNCaP cells (Western blot). Type of assay: cell-based, human. The note with it: 24 h.
For assay [5], the system named is LNCaP cells. The experiment in a line: Cell cycle analysis by flow cytometry, LNCaP. Type of assay: cell-based, human. To be noted: 24 h, propidium iodide. The procedure: Cells were harvested at 24 h culture with the indicated drugs, washed with PBS and fixed in methanol. Cells were then resuspended in a buffer containing […] propidium iodide and […] RNase A. Samples were analysed by flow cytometry using a Becton Dickinson FACSCalibur flow cytometer. Data were collected for 10,000 events and analyzed using FlowJo software.
In general terms: In flow cytometry, cells or beads pass a laser one at a time.

Another assay has as its system PARP. In words: PARP cleavage in LNCaP cells (Western blot). The note with it: 48 h.
For assay [6], the system named is acetylated α-tubulin and acetylated histone H3 in LNCaP cells. The experiment in a line: Accumulation of acetylated α-tubulin and acetylated histone H3 in LNCaP cells (Western blot). Type of assay: cell-based, human. To be noted: BAHA 1.0 or 1.5 μM, SAHA 1.5 and 2.0 μM. The procedure: 2×10^6 transformed cells were cultured for 24 hrs in a 10 cm tissue culture dish with 10 ml RPMI 1640 medium. HDAC inhibitors and/or other agents were added in concentrations as indicated for each study to the cultures and cell cultured for times indicated. Cells were harvested by scrapping, washed once with PBS, lyzed with histone extraction buffer (1 ml/10^7 cells), which contains 10 mM MgCl2, 10 mM Tris, 25 mM KCl, 1% Triton X-100, 8.6% sucrose and protease inhibitor cocktail (Roche Diagnostics Gmbh, Indianapolis, Ind.), pH 6.5. Cells were centrifuged at 600 g at 4° C. for 5 mins. The supernatants were saved as cell lyates. The pellets (nuclei) were washed once with TE buffer, suspended in 0.4 NH2SO4 (100 μl/10^7 cells), incubated for 1 hr on ice, and centrifuged at 10,000 g for 10 mins at 4° C. The supernatant was collected, mixed with 1 ml acetone, incubated at −20° C. for more than 1 hr, and centrifuged at 10,000 g for 10 mins at 4° C. The pellets were suspended in water (100 μl/10^7 cells). The protein concentrations were measured with Braford reagent (Bio-Rad, Hercules, Calif.).
1×10^6 cells in a 10 cm diameter cell culture dish were washed with PBS, harvested by trypsinization in 0.05% trypsin for LNCaP and 0.25% trypsin for MCF7, A549, HFS and WI38 resuspended in RIPA at 50 μl for every 1×10^6 cells. Antibodies used were: anti-acetylated tubulin (Sigma), anti-HDAC 6 (Santa Cruz Biotechnology), and anti-tubulin (Calbiochem), (Xu et al. Cancer Research, 65:7832-7839, 2005).

The test system of assay [7] is acetylated tubulin and acetylated histone H3 in A549 cells. The note with it: 24 hrs, tubacin 0.2, 2 or 20 μM; cited from earlier work.
The next assay deals with recombinant human HDAC1 (Homo sapiens, UniProt Q13547). The experiment in a line: In vitro HDAC assay with fluorogenic substrate, HDAC 1.
recombinant human HDAC1, sequence (Q13547 whole entry): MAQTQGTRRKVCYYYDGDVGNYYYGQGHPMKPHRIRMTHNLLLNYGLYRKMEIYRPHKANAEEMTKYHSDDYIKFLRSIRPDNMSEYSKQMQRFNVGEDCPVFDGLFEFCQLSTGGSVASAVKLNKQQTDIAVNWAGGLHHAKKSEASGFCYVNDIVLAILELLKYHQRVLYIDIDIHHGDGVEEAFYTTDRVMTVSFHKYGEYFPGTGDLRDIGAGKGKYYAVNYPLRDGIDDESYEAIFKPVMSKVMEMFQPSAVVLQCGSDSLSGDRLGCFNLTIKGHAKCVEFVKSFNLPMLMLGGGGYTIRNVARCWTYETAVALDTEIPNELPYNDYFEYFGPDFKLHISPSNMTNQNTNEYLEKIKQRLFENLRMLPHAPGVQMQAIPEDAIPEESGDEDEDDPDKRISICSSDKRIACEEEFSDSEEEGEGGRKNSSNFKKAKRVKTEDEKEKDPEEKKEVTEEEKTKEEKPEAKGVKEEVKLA
A further assay has as its target T1, recombinant human HDAC 6 (Homo sapiens, UniProt Q9UBN7).
T1 sequence (Q9UBN7 1-1215): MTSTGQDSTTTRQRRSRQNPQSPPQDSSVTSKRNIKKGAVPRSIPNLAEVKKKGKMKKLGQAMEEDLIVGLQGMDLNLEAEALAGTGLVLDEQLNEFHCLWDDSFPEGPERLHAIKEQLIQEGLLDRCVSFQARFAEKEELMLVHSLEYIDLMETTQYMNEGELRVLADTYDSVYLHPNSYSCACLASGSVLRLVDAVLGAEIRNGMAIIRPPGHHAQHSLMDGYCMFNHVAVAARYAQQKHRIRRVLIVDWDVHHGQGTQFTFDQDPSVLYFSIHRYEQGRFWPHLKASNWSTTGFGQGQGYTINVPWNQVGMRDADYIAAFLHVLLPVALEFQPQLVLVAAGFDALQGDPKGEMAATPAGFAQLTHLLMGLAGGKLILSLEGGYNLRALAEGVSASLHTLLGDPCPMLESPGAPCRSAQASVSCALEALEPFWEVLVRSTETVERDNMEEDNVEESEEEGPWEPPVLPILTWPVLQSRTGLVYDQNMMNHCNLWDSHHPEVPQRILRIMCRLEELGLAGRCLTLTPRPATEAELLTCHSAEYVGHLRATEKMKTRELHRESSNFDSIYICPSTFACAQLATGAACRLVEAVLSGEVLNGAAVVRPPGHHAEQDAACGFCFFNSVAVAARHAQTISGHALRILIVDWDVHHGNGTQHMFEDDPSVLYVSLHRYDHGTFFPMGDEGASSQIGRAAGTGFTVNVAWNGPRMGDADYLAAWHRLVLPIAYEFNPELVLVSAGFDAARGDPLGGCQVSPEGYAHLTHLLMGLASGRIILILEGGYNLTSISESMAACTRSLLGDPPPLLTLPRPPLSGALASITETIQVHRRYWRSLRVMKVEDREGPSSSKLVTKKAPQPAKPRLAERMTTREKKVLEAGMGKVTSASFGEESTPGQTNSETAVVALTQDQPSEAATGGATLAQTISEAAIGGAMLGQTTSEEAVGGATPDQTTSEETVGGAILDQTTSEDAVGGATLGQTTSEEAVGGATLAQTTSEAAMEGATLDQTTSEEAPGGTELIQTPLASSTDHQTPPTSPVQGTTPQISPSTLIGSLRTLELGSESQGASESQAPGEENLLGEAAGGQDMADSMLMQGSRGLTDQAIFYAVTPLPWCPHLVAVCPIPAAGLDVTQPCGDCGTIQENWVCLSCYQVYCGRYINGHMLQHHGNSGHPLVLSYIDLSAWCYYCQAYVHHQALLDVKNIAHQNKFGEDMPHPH
The experiment in a line: In vitro HDAC assay with fluorogenic substrate, HDAC 6.

Setting [8] is: LNCaP, 25 μM or 50 μM SAHA, 72 hrs.

Protocol for HFS cells: as §1, §2
Protocol for MCF-7 cells: as §1, §2
Protocol for PARP: (§3) 1×10^6 cells were seeded in a 10 cm diameter cell culture dish and cultured overnight prior to addition of the indicated drugs, washed with PBS, harvested by trypsinisation and lysed in RIPA buffer (50 mM Tris-HCL pH8.0, 120 mM NaCl, 0.5 mM EDTA, 0.5% NP-40). […] Quantitation of western blots was performed using ImageJ.
Protocol for WI38 cells: as §1
Protocol for phospho-Chk2: as §3
Protocol for recombinant human HDAC 6: (§4) Inhibition of HDAC 1 and HDAC 6 were analyzed with a fluorogenic substrate according to manufacture's protocol (HDAC assay reagents were purchased from BPS Biosciences, San Diego, Calif.). 50 μl reaction mixture, which contains 1×HDAC assay buffer, 5 units of recombinant human HDAC1 or HDAC 6, 10 μM substrate 3 and 1 μl inhibitor in DMSO, was incubated at 37° C. for 1 hour. […] The fluorescence intensity was measured at excitation of 360 nm and emission of 460 nm with SpectraMax Gemini XS microplate reader (Molecular Devices, Sunny Calif.).
Protocol for recombinant human HDAC1: as §4
Protocol for γH2AX: as §3

Consider `O=C(CCCCCCC(=O)Nc1ccccc1)NO` [SAHA, Suberoylanilide Hydroxamic Acid], for which the cell death in assay [1] (2.5 μM SAHA) is listed as 25%; in assay [1] (5.0 μM SAHA) it was 80%; in the assay on MCF-7 cells, 40%; with HFS cells it was “did not cause cell death”; with WI38 cells, “did not cause cell death”; in the assay with LNCaP cells [4] (LNCaP, 1.25 μM SAHA, alone or plus 1 μM BAHA, 72 hrs), “no detectable cell death”. Further, the cell death result is “less than 10%” in the assay on LNCaP cells [4] (LNCaP, 2.5 μM SAHA, alone or plus 1 μM BAHA, 72 hrs); “no detectable” in the assay on LNCaP cells [4] (LNCaP, 2.5 μM SAHA, alone or with 8 μM tubacin, 72 hrs); 65% with LNCaP cells [4] (LNCaP, 5 μM SAHA, alone or plus 1 μM BAHA, 72 hrs); 45% with LNCaP cells [4] (LNCaP, 5 μM SAHA, alone or with 8 μM tubacin, 72 hrs); 100% in the assay on LNCaP cells [4] (setting [8]); 40% in the assay with LNCaP cells [4] (LNCaP, […] SAHA, alone or plus 8 μM tubacin, after 8 hrs). Further, the cell death entry in the assay on LNCaP cells [4] (wild type LNCaP, 2.5 μM SAHA, 72 hrs (knockdown comparison)) is reported as “no cell death”; in the assay on LNCaP cells [4] (wild type LNCaP, 5.0 μM SAHA, 72 hrs (knockdown comparison)), 35%. The “rate of cell growth” value in the assay with MCF-7 cells is “markedly decreased”; in the assay with LNCaP cells [4] (LNCaP, 2.5, 5 or […] SAHA, alone or plus 8 μM tubacin) it was “markedly decreased”. The “DDIT3 gene expression change” value with LNCaP cells [2] (2 h) was found to be 2.18 fold. For the same compound, the “DDIT4 gene expression change” value in the assay on LNCaP cells [2] (2 h) is reported as “* (No detectable change of ≧2-fold)”; with LNCaP cells [2] (8 h) it was 5.36 fold; with LNCaP cells [2] (24 h) it was 3.81 fold. The Total gene number came to 37 in the assay with LNCaP cells [2] (2 h, genes changed ≧2-fold); 628 with LNCaP cells [2] (8 h, ≧2-fold); 1951 with LNCaP cells [2] (24 h, ≧2-fold). The Downregulated genes in the assay with LNCaP cells [2] (2 h, ≧2-fold) came to 16; with LNCaP cells [2] (8 h, ≧2-fold), 302; with LNCaP cells [2] (24 h, ≧2-fold), 989. Further, the Upregulated genes is 21 with LNCaP cells [2] (2 h, ≧2-fold); 326 in the assay with LNCaP cells [2] (8 h, ≧2-fold); 962 with LNCaP cells [2] (24 h, ≧2-fold). In addition, the “accumulation of γH2AX” value in the assay on γH2AX was “increased”. Also, the “expression of Mcm4, Mcm6, Cdt1 and Psf2” value in the assay with LNCaP cells [3] is “downregulated”. In the assay with LNCaP cells [4] (setting [8]), the cell growth entry was “growth inhibition”. The “level of phospho-Chk2” value in the assay with phospho-Chk2 is on record as “increase of phospho-Chk2”. Moreover, in the assay on LNCaP cells [5], the cell cycle distribution entry was “increase in both G1 and G2 arrested cells”. The PARP cleavage entry with PARP (2.5 mM SAHA) is on record as “did not result in PARE cleavage”; with PARP (5 mM SAHA), “resulted in PARP cleavage”. Also, the “accumulation of acetylated histone H3” value in [6] is listed as “caused an increase in accumulation”. Moreover, the “accumulation of acetylated α-tubulin” value in assay [6] is reported as “caused an increase in accumulation”.

In the case of `O=C(O)CCCCCCC(=O)Nc1ccc([C@H]2O[C@@H](CSc3nc(-c4ccccc4)c(-c4ccccc4)o3)C[C@@H](c3ccc(CO)cc3)O2)cc1` [niltubacin], in [7], the “accumulation of acetylated histone H3” value is on record as “did not induce accumulation” and the “accumulation of acetylated tubulin” value is reported as “did not induce the accumulation”. At recombinant human HDAC1, the IC50 was over 100 nM. Besides, the IC50 on recombinant human HDAC 6 was over 100 nM. Moreover, the “effect on cell growth or cell viability” value in the assay with LNCaP cells [4] (LNCaP, 8 μM nil-tubacin alone) was “did not have a detectable effect”.
